Experimental data as given in US10709715B2, “Method of treating hypertension” (Cipla Limited, priority 2017, dated 2020).
Several values for one entry are separate records, joined by “and”; a condition that tells them apart may be missing. Equal values may be shown once. Read-outs that look alike come from different tables or passages of the source.

Legend:
[1] = system: rats with monocrotaline induced pulmonary arterial hypertension; experiment: Monocrotaline rat model for treatment of pulmonary arterial hypertension, dosing Day 14 till Day 28 (Example 2); assay type: in vivo, Male Sprague-Dawley rats; settings: Sildenafil 100 mg/Kg p.o. QD Day 14 till Day 28; for inhibition at 100 mg/kg: Rattus norvegicus, po
Protocol: The studies were conducted for hemodynamic evaluation of Temozolomide in anesthetized Sprague Dawley rats treated with monocrotaline (“MCT”) to induce pulmonary arterial hypertension. Sildenafil was used as an internal control to compare the effects of temozolomide
The effects of temozolomide were evaluated in rats with monocrotaline induced pulmonary arterial hypertension using sildenafil as standard care treatment. Male Sprague-Dawley rats were orally administered vehicle, temozolomide (30 mg/kg, given once daily every day starting on Day 14 till Day 28), or sildenafil (100 mg/kg, given once daily every day starting on Day 14 till Day 28) (n=12 in each group). Rats received a single injection of monocrotaline (50 mg/kg, s.c.) on Study Day 1. On the twenty-eighth day following monocrotaline dosing, the rats were anesthetized with ketamine/xylazine for terminal monitoring of pulmonary and systemic arterial pressures along with heart rate.
Test Item: Vehicle (0.5% Methylcellulose+0.2% Tween 80 in deionized water, temozolomide (30 mg/kg given once daily starting on Day 14 till Day 28; Sildenafil (100 mg/kg, administered once daily starting on Day 14 till Day 28)
(§1) Route of Administration: Oral
Study Design: The study was planned and conducted according to design depicted below in Table 7
Pulmonary arterial hypertension was induced by injecting 50 mg/kg dose of monocrotaline (3 mL/Kg MCT in 50% DMSO in water) subcutaneously to all the randomized Male Sprague-Dawley rats of Groups VII, VIII, IX, and X (except negative control group). Negative control group (Group VI, DMSO group) received a single dose of 3 mL/kg 50% DMSO in water for injection subcutaneously. Male Sprague-Dawley rats in groups VII, VIII, IX, and X were administered 50 mg/kg of body weight of monocrotaline in DMSO subcutaneously to induce PAH on day 1. The rats of vehicle positive control group (Group VIII) received 5 ml of vehicle every morning. The rats of the temozolomide group (Group IX) were orally administered Temozolomide (30 mg/kg given once daily starting on Day 14 till Day 28) and rats of sildenafil group (Group X) were orally administered sildenafil (100 mg/kg given once daily starting on Day 14 till Day 28). On the twenty-eighth day after monocrotaline dosing, the rats were anesthetized with ketamine/xylazine for terminal monitoring of pulmonary and systemic arterial pressures along with heart rate. It is understood that from day 1 till administration of test compounds i.e till day 14, rates of all groups were suffering from PAH due to administration of MCT. Thus the study was conducted to evaluate the efficacy of Temozolomide treatment for PAH. Sildenafil was used as an internal control to compare the effects of Temozolomide.

[2] = system: rats with monocrotaline induced pulmonary arterial hypertension; experiment: Monocrotaline rat model for pulmonary arterial hypertension, dosing from Day 1 for 28 days (Example 1); assay type: in vivo, Male Sprague-Dawley rats; settings: Sildenafil 100 mg/Kg p.o. QD 28 days from Day 1, Day 28
Protocol: The studies were conducted for hemodynamic evaluation of temozolomide in anesthetized sprague dawley rats treated with monocrotaline (“MCT”) to induce pulmonary arterial hypertension. Sildenafil was used as an internal control to compare the effects of temozolomide.
The effects of temozolomide were evaluated in rats with monocrotaline induced pulmonary arterial hypertension using sildenafil as standard care treatment. Male Sprague-Dawley rats were orally administered vehicle, temozolomide (10 mg/kg given once daily every day for 28 days starting on Day 1), or sildenafil (100 mg/kg, administered once daily every day for 28 days starting on Day 1) (n=12 in each group). Rats received a single injection of monocrotaline (50 mg/kg, s.c.) on Study Day 1. On the twenty-eighth day following monocrotaline dosing, the rats were anesthetized with ketamine/xylazine for terminal monitoring of pulmonary and systemic arterial pressures along with heart rate.
Test Item: Vehicle (0.5% Methylcellulose+0.2% Tween 80 in deionized water, Temozolomide (10 mg/kg given once daily for 28 days; Sildenafil (100 mg/kg administered once daily)
as §1
Study Design: The study was planned and conducted according to design depicted below in Table 1
Pulmonary arterial hypertension was induced by injecting monocrotaline (3 mL/Kg MCT in 50% DMSO in water) subcutaneously at a dose of 50 mg/kg of body weight to all the randomized Male Sprague-Dawley rats of Groups II, III,IV and V (except negative control group). Negative control group (Group I, DMSO group) received a single dose of 3 mL/kg 50% DMSO in water for injection subcutaneously. The positive control group (Group III) received 5 ml of vehicle every morning. The rats of temozolomide group (Group IV) were orally administered temozolomide (10 mg/kg given once daily for 28 days starting on Day 1) and rats of sildenafil group (Group V) were orally administered sildenafil (100 mg/kg given once daily for 28 days starting on Day 1) On the twenty-eighth day after monocrotaline dosing, the rats were anesthetized with ketamine/xylazine for terminal monitoring of pulmonary and systemic arterial pressures along with heart rate.

CCCc1nn(C)c2c(=O)[nH]c(-c3cc(S(=O)(=O)N4CCN(C)CC4)ccc3OCC)nc12 [Sildenafil]
inhibition at 100 mg/kg ([1]; positive control = 0.00, read-out: % Inhibition of Right Ventricular Pressure (RVP)): 58.3% | inhibition at 100 mg/kg ([1]; positive control = 0.00, read-out: % Inhibition of Right Ventricular Systolic Pressure (RVSP)): 55.1% | % Inhibition of Fulton index : Hypertrophy (RV/LV + S) ([1]; positive control = 0.00): 30.70% | Fulton index: Hypertrophy (RV/LV + S), Mean ([1]; group mean, Day 28): 0.384 | Right Ventricle weight, Mean ([1]; group mean, Day 28): 0.286 gms | Right Ventricular Pressure (RVP), Mean ([1]; group mean, Day 28): 14.302 mmHg | Right Ventricular Systolic Pressure (RVSP), Mean ([1]; group mean, Day 28): 30.803 mmHg | Right ventricle/Body weight, Mean ([1]; group mean, Day 28): 0.0008 | Fulton index: Hypertrophy (RV/LV + S) ([1]; individual animals, Day 28): 0.464 and 0.393 and 0.306 and 0.337 and 0.389 and 0.415 | Right Ventricle weight ([1]; individual animals, Day 28): 0.309 gms and 0.220 gms and 0.259 gms and 0.256 gms and 0.308 gms and 0.363 gms | Right Ventricular Pressure (RVP) ([1]; individual animals, Day 28): 10.916 mmHg and 11.268 mmHg and 17.424 mmHg and 11.506 mmHg and 16.211 mmHg and 18.486 mmHg | Right Ventricular Systolic Pressure (RVSP) ([1]; individual animals, Day 28): 22.951 mmHg and 27.908 mmHg and 33.917 mmHg and 23.264 mmHg and 40.201 mmHg and 36.579 mmHg | Right ventricle/Body weight ([1]; individual animals, Day 28): 0.0009 (2×) and 0.0006 and 0.0007 (2×) and 0.0012 | Fulton index: Hypertrophy (RV/LV + S), Mean ([2]; group mean): 0.312 | RV/Body wt, Mean ([2]; group mean): 0.0006 | Right Ventricular Pressure (RVP), Mean ([2]; group mean): 13.929 mmHg | Right Ventricular Systolic Pressure (RVSP), Mean ([2]; group mean): 29.648 mmHg | Right ventricle (RV), Mean ([2]; group mean): 0.247 g | Fulton index: Hypertrophy (RV/LV + S) ([2]; individual animals): 0.367 and 0.297 and 0.323 and 0.312 and 0.352 and 0.309 and 0.330 and 0.167 and 0.354 | RV/Body wt ([2]; individual animals): 0.0009 and 0.0006 (4×) and 0.0007 (3×) and 0.0003 | Right Ventricular Pressure (RVP) ([2]; individual animals): 11.481 mmHg and 15.226 mmHg and 11.673 mmHg and 14.427 mmHg and 14.139 mmHg and 16.310 mmHg and 12.947 mmHg and 12.352 mmHg and 16.804 mmHg | Right ventricle (RV) ([2]; individual animals): 0.440 g and 0.228 g and 0.207 g and 0.232 g and 0.308 g and 0.229 g and 0.261 g and 0.083 g and 0.236 g | Right Ventricular Systolic Pressure (RVSP) ([2]; individual animals, MCT 50 mg/kg s.c.): 23.627 mmHg and 31.322 mmHg and 24.486 mmHg and 29.450 mmHg and 31.316 mmHg and 32.922 mmHg and 34.262 mmHg and 25.579 mmHg and 33.864 mmHg
